Assays:
pregnant rabbits = test: Embryofetal development study in pregnant rabbits, oral; type: in vivo
Text: No maternal toxicity was observed.

female rats = test: Pre- and postnatal development study in female rats, oral; type: in vivo, rat
Text: There are no data on the presence of PONVORY in human milk, the effects on the breastfed infant, or the effects of the drug on milk production.

mice = test: Carcinogenesis, mice, oral up to 2 years; type: in vivo, mouse
Procedure: Plasma exposure (AUC) at to lowest dose tested in males (50 mg/kg/day) was approximately 5 times that in humans at the recommended human dose (RHD) of 20 mg.

[1] = tested on: peripheral lymphocyte count; type: in vivo, human
Text: PONVORY causes a dose-dependent reduction in peripheral lymphocyte count to 30-40% of baseline values because of reversible sequestration of lymphocytes in lymphoid tissues [see Clinical Pharmacology (12.2)]. PONVORY may therefore increase the susceptibility to infections. Life-threatening and rare fatal infections have been reported in association with other sphingosine 1-phosphate (SIP) receptor modulators.
Initiation of treatment with PONVORY should be delayed in patients with active infection until resolution. Lymphocyte counts returned to the normal range in 90% of patients within 1 week of stopping therapy in modeling studies [see Clinical Pharmacology (12.2)]. In Study 1, peripheral lymphocyte counts returned to normal range within 2 weeks after discontinuation of PONVORY, which was the first timepoint evaluated. Because residual pharmacodynamic effects, such as lowering effects on peripheral lymphocyte count, may persist for 1 to 2 weeks after discontinuation of PONVORY, vigilance for infection should be continued for 1 to 2 weeks after PONVORY is discontinued [see Warnings and Precautions (5.12)].
In Study 1, the proportion of patients who experienced lymphocyte counts less than 0.2×10^9/L was 3.2%. Effective diagnostic and therapeutic strategies should be employed in patients with symptoms of infection while on therapy. Consider interruption of treatment with PONVORY if a patient develops a serious infection.

[2] = tested on: CYP or UGT enzymes, or transporters; test: In vitro investigations of drug-drug interaction potential; type: in vitro ADME; conditions: at recommended dose of 20 mg once-daily
rats = test: Carcinogenesis, rats, oral up to 2 years; type: in vivo, rat
Procedure: Plasma exposure at the highest dose tested in males (30 mg/kg/day) was approximately 4 times that in humans at the recommended human dose (RHD) of 20 mg.

Solubility in water = type: physicochemical
mice, rats, and dogs = conditions: in vivo
Text: At the higher doses tested in short-term studies, alveolar histiocytosis was associated with lung edema, emphysema, or hyalinosis, and with bronchioloalveolar hyperplasia after cessation of dosing in rats and alveolar histiocytosis and hyalinosis in dogs. Effects tended to be absent or less severe after chronic treatment. These findings are considered secondary to increased vascular permeability caused by S1P1 receptor modulation.

SMILES: CCC/N=C1\S/C(=C\c2ccc(OC[C@H](O)CO)c(Cl)c2)C(=O)N1c1ccccc1C [Ponesimod, (R)-5-[3-chloro-4-(2,3-dihydroxy-propoxy)-benz[Z]ylidene]-2-([Z]-propylimino)-3-o-tolyl-thiazolidin-4-one]
- Embryofetal findings in rabbits (pregnant rabbits; 0, 0.25, 1, or 4 mg/kg/day oral, at highest dose): an increase in post-implantation loss and fetal variations
- No-effect dose for adverse effects on embryofetal development in rabbits (pregnant rabbits; rabbit, in vivo): 1 mg/kg/day
- Plasma exposure at no-effect dose vs humans at RHD (pregnant rabbits; rabbits): lower than that in humans
- No-effect dose for adverse effects on pre- and postnatal development in rats (female rats; 5, 10, or 20 mg/kg oral): not identified
- Plasma exposure (AUC) in dams at lowest dose tested vs humans at RHD (female rats; rat, in vivo): less than that in humans
- Presence in offspring after dosing of female rats during pregnancy and lactation (female rats; suggesting excretion in milk): detected in the plasma of the offspring
- Carcinogenicity findings in mice (mice; males all doses (50, 150, 400 mg/kg/day), females highest dose (300 mg/kg/day)): incidences in hemangiosarcoma and combined hemangioma and hemangiosarcoma
- Plasma exposure (AUC) at lowest dose in male mice (50 mg/kg/day) relative to humans at RHD (mice; mouse, in vivo): approximately 5 times
- Time for peripheral lymphocyte counts to return to normal range after discontinuation ([1]; Study 1, first timepoint evaluated): ≤ 2 weeks
- Peripheral lymphocyte count reduced to % of baseline values ([1]; dose-dependent): 30-40 % of baseline
- Proportion of patients with lymphocyte counts less than 0.2×10^9/L ([1]; human, in vivo): 3.2%
- Drug-drug interaction potential for CYP or UGT enzymes, or transporters [2]: do not show any clinically relevant drug-drug interaction potential
- Plasma exposure at highest dose in male rats (30 mg/kg/day) relative to humans at RHD (rats; rat, in vivo): approximately 4 times
- Carcinogenicity findings in rats (rats; up to 30 (males) / 100 (females) mg/kg/day): did not result in an increase in tumors
- Solubility in water (Solubility in water): practically insoluble or insoluble in water
- Lung findings in oral toxicity studies (mice, rats, and dogs): Increases in lung weight and histopathology
